For data set [1], the system named is Prostaglandin E2-induced thermal hypersensitivity. In words: In vivo efficacy in rats: Prostaglandin E2-induced thermal hypersensitivity (warm-water tail withdrawal). Also on record: species or system Spraque-Dawley rats. As to conditions: for % MPE (reversal of PGE2-induced thermal hypersensitivity): rat, 30 min before PGE2. Here is the method:
Subjects: Individually housed Spraque-Dawley rats had free access to rat chow and water. A 12-h light/12-h dark cycle was in effect (lights on from 6:00 am to 6:00 pm). Animal maintenance and research were conducted in accordance with the guidelines provided by the National Institutes of Health Committee on Laboratory Animal Resources. These subjects were used in the tests below.
Procedure: The terminal 10 cm of the tail was placed into a thermos bottle containing water warmed to 38, 42, 46, 50 or 54° C. The latency in seconds for the animal to remove the tail from the water was used as a measure of nociception.
Following the assessment of baseline thermal sensitivity, thermal hypersensitivity was produced by a 50 μL injection of 0.1 mg prostaglandin E2 (PGE2) into the terminal 1 cm of the tail. Temperature-effect curves were generated before (baseline) and after (15, 30, 60, 90 and 120 min) the PGE2 injection.
The ability of compounds to reverse PGE2-induced thermal hypersensitivity was assessed using a single dose time-course procedure. Under this procedure, a single dose of the compound to be tested was administered intraperitoneally (IP), orally (PO) or intranasally (IN) 30 min before the injection of PGE2. […] sensitivity was assessed 30 min after PGE2 injection. For the IP and PO administration, compound was administered in a volume of 1 ml/kg with the dose administered calculated as mg/kg. For IN administration, rats were lightly anesthetized with 3.5% halothane in O2 and compound or vehicle was administered in a volume of 25 μL solution dropped into each nostril with the dose administered in absolute mg.
Data Analysis: The temperature that produced a half-maximal increase in the tail-withdrawal latency (i.e., T10) was calculated from each temperature-effect curve. The T10 was determined by interpolation from a line drawn between the point above and the point below 10 sec on the temperature-effect curve. For these studies, thermal hypersensitivity was defined as a leftward shift in the temperature-effect curve and a decrease in the T10 value. Reversal of thermal hypersensitivity was defined as a return to baseline of the temperature-effect curve and the T10 value and was calculated according to the following equation: [formula] in which T10^drug+PGE2 is the T10 after a drug in combination with PGE2, T10^PGE2 is the T10 after PGE2 alone, and T10^baseline is the T10 under control conditions. A % MPE value of 100 indicates a complete return to the baseline thermal sensitivity observed without the PGE2 injection.

The conditions of data set [2]: monkey, in vivo, iv, 1.1 mg/kg.
A short description of data set [3]: in vivo. As to conditions: monkey, po.

For orientation: Cmax means the peak of the concentration-time curve. The term bioavailability denotes the share of a dose that reaches the circulation, judged against a reference dose that is usually intravenous. Higher therefore signals good availability.

Where two headings read alike, the source gives them in different places.

For the molecule `O=c1c2c(c1=O)N(CCP(=O)(O)O)CCCN2` [Compound A, [2-(8,9-dioxo-2,6-diazabicyclo[5.2.0]non-1(7)-en-2-yl)ethyl]phosphonic acid], in data set [1] (rat PGE2-induced thermal hypersensitivity model, intranasal and intraperitoneal found similar), the “in vivo efficacy of intranasal and intraperitoneal administration compared with oral administration” value is given as “ten folds higher”. Besides, the “% MPE (reversal of PGE2-induced thermal hypersensitivity)” value is −7% in data set [1] (IP, 1 mg/kg); 66% in data set [1] (IP, 3 mg/kg); 79% in data set [1] (IP, 10 mg/kg, 10 mg/kg); 5% in data set [1] (PO, 10 mg/kg); 23% in data set [1] (PO, 30 mg/kg); 87% in data set [1] (PO, 100 mg/kg, 100 mg/kg). Moreover, the AUC in data set [2] stood at 1.67 ughr/ml; in data set [3] (20 mg/kg) it was 1740 ng·h/mL. Further, the Cmax in data set [3] (20 mg/kg) amounted to 147 ng/mL. Further, the bioavailability in data set [3] (100 mg/kg) is roughly 2.5%.

The values are drawn from patent publication US20050004079A1, “Pharmaceutical compositions for intranasal administration of [2-(8,9-dioxo-2,6-diazabicyclo[5.2.0]non-1(7)-en-2-yl)alkyl] phosphonic acid and derivatives and methods of use thereof” (Wyeth, priority 2003, published 2005).
